Among the data in patent US5438052A, “Cephalosporin derivatives” (Hoffmann-La Roche Inc., priority 1991, dated 1995) are MIC and ED50 values, retold here.

The test system of assay [1] is E. coli 25922. Description: Minimum inhibitory concentration in vitro, agar dilution method. Format: cell-based. As to conditions: Escherichia coli. An excerpt: (§1) 1. Minimum Inhibitory Concentration in vitro
(§2) The activities ascertained, minimum inhibitory concentration (MIC) in μg/ml, are compiled in Table 1 hereinafter: […]
On the technique in general: Agar dilution tests growth on a series of plates holding different concentrations.

In assay [2] the test system is E. cloacae 908R. The description is as above. Format: cell-based. As to conditions: Enterobacter cloacae.
From the text: as §1, §2

Assay [3] has as its system P. aeruginosa MK1184. Described as above. It counts as cell-based. The conditions noted are these: Pseudomonas aeruginosa.
From the text: as §1, §2

The subject of assay [4] is P. aeruginosa 799/61. Described as above. It counts as cell-based. The conditions noted are these: Pseudomonas aeruginosa.
From the text: as §1, §2

The test system of assay [5] is S. aureus 6538. The description is as above. It counts as cell-based. The conditions noted are these: Staphylococcus aureus.
From the text: as §1, §2

Assay [6] relates to E. cloacae P99. The assay is described as above. It counts as cell-based. The conditions noted are these: Enterobacter cloacae.
From the text: as §1, §2

The subject of assay [7] is K. pneumoniae 418. Described as above. It counts as cell-based. As to conditions: Klebsiella pneumoniae.
From the text: as §1, §2

Assay [8] concerns C. freundii 902. The description is as above. Format: cell-based. As to conditions: Citrobacter freundii.
From the text: as §1, §2

The test system of assay [9] is S. marcescens 69438. The description is as above. It counts as cell-based. As to conditions: Serratia marcescens.
From the text: as §1, §2

Assay [10] deals with E. cloacae 908SSi. The assay is described as above. It counts as cell-based. As to conditions: Enterobacter cloacae.
From the text: as §1, §2

The subject of assay [11] is E. aerogenes CF153. The assay is described as above. Format: cell-based. The conditions noted are these: Klebsiella aerogenes.
From the text: as §1, §2

In assay [12] the test system is S. pyogenes 15. The assay is described as above. Format: cell-based. As to conditions: Streptococcus pyogenes.
From the text: as §1, §2

For assay [13], the system named is K. oxytoca 1082. The description is as above. As to conditions: Klebsiella oxytoca. Format: cell-based.
From the text: as §1, §2

For assay [14], the system named is P. mirabilis 2117. The description is as above. Format: cell-based. As to conditions: Proteus mirabilis.
From the text: as §1, §2

Assay [15] concerns P. aeruginosa 27853. The description is as above. It counts as cell-based. The conditions noted are these: Pseudomonas aeruginosa.
From the text: as §1, §2

Assay [16] concerns P. vulgaris 1028. The assay is described as above. It counts as cell-based. The conditions noted are these: Proteus vulgaris.
From the text: as §1, §2

Assay [17] relates to P. aeruginosa BA. The description is as above. Format: cell-based. As to conditions: Pseudomonas aeruginosa.
From the text: as §1, §2

In assay [18] the test system is E. coli 25922. Description: Experimental systemic septicaemia in the mouse. Format: in vivo. As to conditions: 96 h. The procedure:
(§3) 2. Experimental systemic septicaemia in the mouse
(§4) An experimental systemic septicaemia was produced in albino mice weighing 16-20 g by intraperitoneally injecting into the experimental animals a sample of a dilute culture of the test organism which had been grown overnight. The sample administered is calculated such that the dosage administered is about 5-100 times greater than the dosage which is required to kill 50% of untreated experimental animals within 48 hours. The bacteria were injected as a suspension in the culture broth. Groups of 5 experimental animals each were used not only for the control, but also for the treatment for each dosage tested. The products in accordance with the invention were administered subcutaneously as a suspension in Tween 80 (2%), whereby the concentrations were chosen such that each experimental animal received 500 μl per administration. The respective concentrations were administered twice, namely 1 and 3 hours after the infection (in the case of P. aeruginosa three times, namely 1, 3 and 5 hours after the infection). The ED50 is that dosage which protects 50% of the experimental animals and was calculated by means of the Probit method on the basis of the survial rate after 4 days following the infection. The ED50 values in mg/kg s.c. (subcutaneous) for representatives of the class of substance in accordance with the invention are given in Table 2 hereinafter.

In assay [19] the test system is Pseudomonas aeruginosa BA. The assay is described as follows: Experimental systemic septicaemia in the mouse. It counts as in vivo. The conditions noted are these: sc, 96 h. The procedure: as §3, §4
In assay [20] the test system is P. aeruginosa 799/WT. Description: Minimum inhibitory concentration in vitro, agar dilution method. It counts as cell-based. The conditions noted are these: Pseudomonas aeruginosa, 799/WT.
From the text: as §1, §2

Converted amounts (≈) assume the structure as drawn. Where two headings read alike, the source gives them in different places.

Broadly, the MIC is the lowest concentration that inhibits growth of the organism. The term ED50 denotes the dose that gives a 50% effect, or the effect in half of the subjects. As to `Cc1cc(SCC2=C(C(=O)O)N3C(=O)[C@@H](NC(=O)/C(=N\OCc4ccc(O)c(O)c4F)c4csc(N)n4)[C@H]3SC2)n2nc(COC(=O)c3ccc(O)c(O)c3)nc2n1` [Example 9], the MIC in [1] (E. coli 25922, agar dilution, read-out: MIC) was less than 0.1 µg/mL; in assay [2] (E. cloacae 908R, agar dilution, read-out: MIC), 0.12 µg/mL (≈ 0.141 µM); in assay [3] (P. aeruginosa MK1184, agar dilution, read-out: MIC), less than 0.1 µg/mL; in assay [4] (P. aeruginosa 799/61, agar dilution, read-out: MIC), less than 0.1 µg/mL; in [5] (S. aureus 6538, agar dilution, read-out: MIC), 8 µg/mL (≈ 9.37 µM); in [6] it was 8 µg/mL (≈ 9.37 µM). The MIC in [7] (K. pneumoniae 418, agar dilution, read-out: MIC) is less than 0.1 µg/mL; in [8] (C. freundii 902, agar dilution, read-out: MIC), less than 0.1 µg/mL; in assay [9] (S. marcescens 69438, agar dilution, read-out: MIC), less than 0.1 µg/mL; in assay [10] (E. cloacae 908SSi, agar dilution, read-out: MIC) it was 4 µg/mL (≈ 4.68 µM); in assay [11] (E. aerogenes CF153, agar dilution, read-out: MIC), less than 0.1 µg/mL; in assay [12] (S. pyogenes 15, agar dilution, read-out: MIC) it was 1 µg/mL (≈ 1.17 µM). In addition, the MIC is less than 0.1 µg/mL in assay [13] (K. oxytoca 1082, agar dilution, read-out: MIC); less than 0.1 µg/mL in [14] (P. mirabilis 2117, agar dilution, read-out: MIC); less than 0.1 µg/mL in [15] (P. aeruginosa 27853, agar dilution, read-out: MIC); less than 0.1 µg/mL in assay [16] (P. vulgaris 1028, agar dilution, read-out: MIC); less than 0.1 µg/mL in [17] (P. aeruginosa BA, agar dilution, read-out: MIC). In addition, the ED50 is less than 0.05 mg/kg in assay [18] (Escherichia coli, sc, E. coli 25922, albino mice, s.c. 1 and 3 hours after infection, survival after 4 days, read-out: ED50); 0.24 mg/kg in assay [19] (P. aeruginosa BA, albino mice, s.c. 1, 3 and 5 hours after infection, survival after 4 days, read-out: ED50).

With `Cc1cc(SCC2=C(C(=O)[O-])N3C(=O)[C@@H](NC(=O)/C(=N\OCc4nc(=O)c(O)c[nH]4)c4csc(N)n4)[C@H]3SC2)n2nc(COC(=O)c3ccc(O)c(O)c3)nc2n1.[Na+]` [Example 6, (6R,7R)-7-[(Z)-2-(2-amino-4-thiazolyl)-2-[[(1,4-dihydro-5-hydroxy-4-oxo-2-pyrimidinyl)methoxy]imino]acetamido]-3-[[[2-[[(3,4-dihydroxybenzoyl)oxy]methyl]-5-methyl-s-triazolo[1,5-a]pyrimidin-7-yl]thio]methyl]-8-oxo-5-thia-1-azabicyclo[4.2.0]oct-2-ene-2-carboxylic acid sodium salt (1:1)], the MIC was less than 0.1 µg/mL in assay [1] (25922); 0.12 µg/mL in assay [2] (908R); less than 0.1 µg/mL in assay [3] (MK1184); less than 0.1 µg/mL in assay [4] (799/61); less than 0.1 µg/mL in [20]; 16 µg/mL in assay [5] (6538). For the same compound, the MIC is 4 µg/mL in [6]; less than 0.1 µg/mL in [7] (418); less than 0.1 µg/mL in [8] (902); 0.12 µg/mL in assay [9] (69438); 4 µg/mL in assay [10] (908SSI); less than 0.1 µg/mL in [11] (CF153). The MIC in assay [12] (15) was 2 µg/mL; in [13] (1082), 0.12 µg/mL; in assay [14] (2117) it was 0.25 µg/mL; in assay [15] (27853) it was less than 0.1 µg/mL; in assay [16] (1028), less than 0.1 µg/mL; in assay [17], less than 0.1 µg/mL. The ED50 is less than 0.2 mg/kg in assay [18] (Escherichia coli, 25922, sc) and 0.3 mg/kg in assay [19].
